The supplement of paper PMC10307832

Key:
Experiment in all cases: relative viability (nuclei count vs DMSO), 5 days (fraction); higher = more cells survive
NCI-H1793 = tested on: NCI-H1793
In short: (§1)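 Relative viability equals treated-well nuclei counts divided by vehicle-well nuclei counts. Counts came from 4× images of lung cancer cell lines grown in 1536-well plates for 5 days after pin-tool dosing on the day after seeding. Dosing used one drug alone or a fixed anchor-drug dose plus five library-drug doses (not always all listed) in √10 steps, and values are medians of duplicate plates.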

NCI-H1355 = tested on: NCI-H1355
In short: as §1

NCI-H2085 = tested on: NCI-H2085
In short: as §1

BEN = tested on: BEN
In short: as §1

NCI-H838 = tested on: NCI-H838
In short: as §1

NCI-H1651 = tested on: NCI-H1651
In short: as §1

COR-L23 = tested on: COR-L23
In short: as §1

NCI-H441 = tested on: NCI-H441
In short: as §1

LU99A = tested on: LU99A
In short: as §1

NCI-H1650 = tested on: NCI-H1650
In short: as §1

NCI-H2023 = tested on: NCI-H2023
In short: as §1

NCI-H460 = tested on: NCI-H460
In short: as §1

NCI-H2342 = tested on: NCI-H2342
In short: as §1

NCI-H1437 = tested on: NCI-H1437
In short: as §1

NCI-H358 = tested on: NCI-H358
In short: as §1

NCI-H1734 = tested on: NCI-H1734
In short: as §1

HCC-366 = tested on: HCC-366
In short: as §1

CAL-12T = tested on: CAL-12T
In short: as §1

LOU-NH91 = tested on: LOU-NH91
In short: as §1

NCI-H1975 = tested on: NCI-H1975
In short: as §1

SK-LU-1 = tested on: SK-LU-1
In short: as §1

## O=c1cc(N2CCOCC2)oc2c(-c3cccc4c3sc3ccccc34)cccc12 + O=C(c1cc(Cc2n[nH]c(=O)c3ccccc23)ccc1F)N1CCN(C(=O)C2CC2)CC1 [Olaparib] (partner 8 µM)
NCI-H1793; first compound 0.01 µM
  relative viability: 0.77
NCI-H1793; first compound 0.03162 µM
  relative viability: 0.857
NCI-H1793; first compound 0.1 µM
  relative viability: 0.928
NCI-H1793; first compound 0.3162 µM
  relative viability: 0.657
NCI-H1793; first compound 1 µM
  relative viability: 0.738
NCI-H1355; first compound 0.01 µM
  relative viability: 0.712
NCI-H1355; first compound 0.03162 µM
  relative viability: 0.675
NCI-H1355; first compound 0.1 µM
  relative viability: 0.711
NCI-H1355; first compound 0.3162 µM
  relative viability: 0.709
NCI-H1355; first compound 1 µM
  relative viability: 0.743
NCI-H2085; first compound 0.01 µM
  relative viability: 0.806
NCI-H2085; first compound 0.03162 µM
  relative viability: 0.813
NCI-H2085; first compound 0.1 µM
  relative viability: 0.775
NCI-H2085; first compound 0.3162 µM
  relative viability: 0.767
NCI-H2085; first compound 1 µM
  relative viability: 0.767
BEN; first compound 0.01 µM
  relative viability: 1.12
BEN; first compound 0.03162 µM
  relative viability: 1.21
BEN; first compound 0.1 µM
  relative viability: 1.21
BEN; first compound 0.3162 µM
  relative viability: 1.08
BEN; first compound 1 µM
  relative viability: 1.1
NCI-H838; first compound 0.01 µM
  relative viability: 0.753
NCI-H838; first compound 0.03162 µM
  relative viability: 0.775
NCI-H838; first compound 0.1 µM
  relative viability: 0.851
NCI-H838; first compound 0.3162 µM
  relative viability: 0.769
NCI-H838; first compound 1 µM
  relative viability: 0.749
NCI-H1651; first compound 0.01 µM
  relative viability: 0.19
NCI-H1651; first compound 0.03162 µM
  relative viability: 0.188
NCI-H1651; first compound 0.1 µM
  relative viability: 0.179
NCI-H1651; first compound 0.3162 µM
  relative viability: 0.178
NCI-H1651; first compound 1 µM
  relative viability: 0.168
COR-L23; first compound 0.01 µM
  relative viability: 0.394
COR-L23; first compound 0.03162 µM
  relative viability: 0.352
COR-L23; first compound 0.1 µM
  relative viability: 0.327
COR-L23; first compound 0.3162 µM
  relative viability: 0.318
COR-L23; first compound 1 µM
  relative viability: 0.37
NCI-H441; first compound 0.01 µM
  relative viability: 0.485
NCI-H441; first compound 0.03162 µM
  relative viability: 0.48
NCI-H441; first compound 0.1 µM
  relative viability: 0.643
NCI-H441; first compound 0.3162 µM
  relative viability: 0.631
NCI-H441; first compound 1 µM
  relative viability: 0.585
LU99A; first compound 0.01 µM
  relative viability: 0.259
LU99A; first compound 0.03162 µM
  relative viability: 0.273
LU99A; first compound 0.1 µM
  relative viability: 0.277
LU99A; first compound 0.3162 µM
  relative viability: 0.27
LU99A; first compound 1 µM
  relative viability: 0.278
NCI-H1650; first compound 0.01 µM
  relative viability: 0.667
NCI-H1650; first compound 0.03162 µM
  relative viability: 0.752
NCI-H1650; first compound 0.1 µM
  relative viability: 0.94
NCI-H1650; first compound 0.3162 µM
  relative viability: 0.739
NCI-H1650; first compound 1 µM
  relative viability: 0.624
NCI-H2023; first compound 0.01 µM
  relative viability: 0.514
NCI-H2023; first compound 0.03162 µM
  relative viability: 0.471
NCI-H2023; first compound 0.1 µM
  relative viability: 0.491
NCI-H2023; first compound 0.3162 µM
  relative viability: 0.513
NCI-H2023; first compound 1 µM
  relative viability: 0.468
NCI-H460; first compound 0.01 µM
  relative viability: 0.452
NCI-H460; first compound 0.03162 µM
  relative viability: 0.37
NCI-H460; first compound 0.1 µM
  relative viability: 0.452
NCI-H460; first compound 0.3162 µM
  relative viability: 0.403
NCI-H460; first compound 1 µM
  relative viability: 0.406
NCI-H2342; first compound 0.01 µM
  relative viability: 0.418
NCI-H2342; first compound 0.03162 µM
  relative viability: 0.434
NCI-H2342; first compound 0.1 µM
  relative viability: 0.438
NCI-H2342; first compound 0.3162 µM
  relative viability: 0.457
NCI-H2342; first compound 1 µM
  relative viability: 0.428
NCI-H1437; first compound 0.01 µM
  relative viability: 0.606
NCI-H1437; first compound 0.03162 µM
  relative viability: 0.656
NCI-H1437; first compound 0.1 µM
  relative viability: 0.725
NCI-H1437; first compound 0.3162 µM
  relative viability: 0.656
NCI-H1437; first compound 1 µM
  relative viability: 0.613
NCI-H358; first compound 0.01 µM
  relative viability: 0.623
NCI-H358; first compound 0.03162 µM
  relative viability: 0.634
NCI-H358; first compound 0.1 µM
  relative viability: 0.721
NCI-H358; first compound 0.3162 µM
  relative viability: 0.553
NCI-H358; first compound 1 µM
  relative viability: 0.669
NCI-H1734; first compound 0.01 µM
  relative viability: 0.686
NCI-H1734; first compound 0.03162 µM
  relative viability: 0.638
NCI-H1734; first compound 0.1 µM
  relative viability: 0.685
NCI-H1734; first compound 0.3162 µM
  relative viability: 0.638
NCI-H1734; first compound 1 µM
  relative viability: 0.652
HCC-366; first compound 0.01 µM
  relative viability: 0.368
HCC-366; first compound 0.03162 µM
  relative viability: 0.319
HCC-366; first compound 0.1 µM
  relative viability: 0.435
HCC-366; first compound 0.3162 µM
  relative viability: 0.346
HCC-366; first compound 1 µM
  relative viability: 0.386
CAL-12T; first compound 0.01 µM
  relative viability: 0.682
CAL-12T; first compound 0.03162 µM
  relative viability: 0.707
CAL-12T; first compound 0.1 µM
  relative viability: 0.75
CAL-12T; first compound 0.3162 µM
  relative viability: 0.693
CAL-12T; first compound 1 µM
  relative viability: 0.744
LOU-NH91; first compound 0.01 µM
  relative viability: 0.855
LOU-NH91; first compound 0.03162 µM
  relative viability: 0.916
LOU-NH91; first compound 0.1 µM
  relative viability: 0.96
LOU-NH91; first compound 0.3162 µM
  relative viability: 0.921
LOU-NH91; first compound 1 µM
  relative viability: 0.884
NCI-H1975; first compound 0.01 µM
  relative viability: 0.834
NCI-H1975; first compound 0.03162 µM
  relative viability: 0.785
NCI-H1975; first compound 0.1 µM
  relative viability: 0.915
NCI-H1975; first compound 0.3162 µM
  relative viability: 0.82
NCI-H1975; first compound 1 µM
  relative viability: 0.809
SK-LU-1; first compound 0.01 µM
  relative viability: 0.434
SK-LU-1; first compound 0.03162 µM
  relative viability: 0.447
SK-LU-1; first compound 0.1 µM
  relative viability: 0.387
SK-LU-1; first compound 0.3162 µM
  relative viability: 0.52
SK-LU-1; first compound 1 µM
  relative viability: 0.51
